Assay results from paper PMC7862523 (Clinical Pharmacokinetics, 2020).

Columns and labels:
[1] = Association between model-derived AUC and pharmacodynamic biomarkers; type: in vivo, human
[2] = Population pharmacokinetic model
[3] = final population PK model, combined dataset

CC(C)CN(C[C@@H](O)[C@H](Cc1ccccc1)NC(=O)O[C@H]1CO[C@H]2OCC[C@H]21)S(=O)(=O)c1ccc(N)cc1 [Darunavir]
correlation between AUC and CD4 lymphocyte count ([1]; Spearman, p = 0.3): no apparent correlation | correlation between AUC and occurrence of CNS adverse events ([1]; any point during follow-up, W = 1613.5, p = 0.42): no apparent correlation | correlation between AUC and occurrence of lipodystrophy ([1]; any point during follow-up, W = 1687, p = 0.97): no apparent correlation | correlation between AUC and viral load ([1]; viral load > 40 or < 40 copies/mL, Wilcoxon W = 582, p = 0.45): no apparent correlation | CL higher in CYP3A5 expressors compared with non-expressors ([2]; combined dataset): 19% | CL lower in female compared with male individuals ([2]; combined dataset): 21% | σadditive (SD), residual variability ([2]; final model): 0.641 | σexponential (SD), residual variability ([2]; final model): 0.281 | SLCO3A1 G > T on V (covariate scale factor) ([2]; final model, rs8027174): 0.81 | ωCL (SD), inter-individual variability of CL [2, 3]: 0.22 | ωV (SD), inter-individual variability of V [2, 3]: 0.33 | ωka (SD), inter-individual variability of ka [2, 3]: 0.60 | ka (absorption rate constant), estimate ([2]; final population PK model, combined dataset, typical value): 0.68 h⁻¹
